Where only a bound is given, the exact number is not on record here.

Regarding `Cc1c(-c2cc(Nc3cc4n(n3)CCN(C)C4)c(=O)[nH]n2)cccc1N1Cc2ccc(C(C)(C)C)cc2C1=O`, the melting point – broadly, the temperature of the solid-liquid transition – was 208 to 210 °C.

Turning to `Cc1cc2c(cc1Cl)NC(=O)C2c1ccccc1Cl` (stereo not given), the melting point stood at 186 °C.

Compound `COc1cccc(CNC(=O)c2nc3cccc(OCCO)c3c(=O)[nH]2)c1` had a melting point of 173 to 174 °C.

For `CC(=O)NCCNC(=O)c1ccc(Br)s1`, the melting point lay in the range of 244 to 245 °C.

In turn, `CC(O)c1cc2c(s1)C(=O)c1sccc1C2=O` (stereo not given) came in with a melting point of 170 to 172 °C.

`Cc1nc(N)c([N+](=O)[O-])cc1Cl` yielded a melting point of 214 to 215 °C.

For `COc1ccc2oc(N)c(C(N)=O)c(=O)c2c1`, the melting point stood at 270 °C.

Consider `Cc1[nH]c(C(=O)N2CCCC2)c(C)c1-c1nc2ccc(C(=O)c3ccccc3)cc2[nH]1`, for which the melting point was 155 to 157 °C.

`COc1ccc(C2=CCC(=O)CC2)c2c1OCCO2` displayed a melting point of 56 to 59 °C.

Compound `CC(C)(C)OC(=O)N1CCn2c(Br)c(-c3cccc(F)c3)c(C(N)=O)c2C1` had a melting point of 168 to 174 °C.

With `NS(=O)(=O)c1ccccc1C(=O)c1cccs1`, the melting point lay within 122 to 125 °C.

Take `COC[C@H](Cc1ccccc1)NC(=O)[C@@H](CC(=O)O)n1ccc(-c2ccc(-c3ccccc3)cc2)c1`: the melting point was 247 °C.

Consider `CCCCCCCCCCOc1cc(OCCCCCCCCCC)cc(N(CC(=O)O)CC(=O)O)c1`, for which the melting point is 110 to 114 °C.

Regarding `OCCCCCCCCCCCCCCC(O)CNCCO` (stereo not given), the melting point is 103 °C.

In turn, `CC(C)(C)OC(=O)N1CCC(O)(Cc2ccc3ccccc3n2)CC1` had a melting point of 119 to 121 °C.

`CCn1nc(-c2cccc(Cl)c2)c(C(C)=O)c(Nc2cccc3cnccc23)c1=O` gave a melting point of 189 to 191 °C.

For the compound `COc1cc(C(F)(F)F)sc1C(=O)O`, the melting point was 131 to 132 °C.

Take `FC(F)(F)c1ccc2nc(C3CCN(c4ncccc4Cl)CC3)[nH]c2c1`: the melting point amounted to 74 °C.

`O=Cc1csc(Oc2ccccc2)n1`: the melting point was determined as 63 °C.

In turn, `Cc1nc(-c2ccc(C(F)(F)F)cc2)sc1CSc1ccc(OCC(=O)O)c2ccccc12` displayed a melting point of 181 to 183 °C.

In the case of `CCOC(=O)c1[nH]cc(C)c(=O)c1C`, the melting point fell in the range of 124 to 126 °C.

In turn, `Nc1c(Cl)cc(C(O)CNCCCCCCOCCCCCCc2cnccn2)cc1Cl` (stereo not given) gave a melting point of 60 to 63 °C.

The compound `O=Cc1cc(Oc2c(Cl)cc(-n3ncc(=O)[nH]c3=O)cc2Cl)ccc1O` gave a melting point of 146 to 150 °C.

`CC(=O)Nc1ccc2nc(NC3=NCCN3)[nH]c2c1` had a melting point of 294 °C.

As for `N#CC1C(=O)NC(=O)C(C#N)C12CCCCC2` (stereo not given), the melting point was in the range of 202 to 210 °C.

Turning to `CC(C)CC(NC(=O)Cc1ccc(NC(=O)Nc2ccccn2)cc1)c1ncc(C(C)C(=O)O)s1` (stereo not given), the melting point lay within 173 to 175 °C.

`O=C(O)CCc1ccc(CNC(=O)C2Cc3ccccc3N2S(=O)(=O)c2ccc(-c3cccc(C(F)(F)F)c3)cc2)cc1` (stereo not given) came in with a melting point of 85 °C.

`Cn1c(C(F)(F)F)cc(=O)n(-c2cc(OCc3cccs3)c(Cl)cc2F)c1=O`: the melting point fell in the range of 156 to 158 °C.

As for `CCC(Oc1cccc2ccccc12)C(=O)OC1CC(O)C=C2C=CC(C)C(CCC3CC(O)CC(=O)O3)C21` (stereo not given), the melting point is 138 to 140 °C.

On to `N#Cc1ccc2c(c1)S(=O)(=O)c1ccc(F)cc1C2=O`, for which the melting point was 260 °C.

The compound `Nc1nc(Cl)nc2c1ncn2C1CCCCC1` had a melting point of 206 to 209 °C.

In turn, `COc1ccc(-c2nc3cnncc3[nH]2)c(OCC#N)c1` yielded a melting point of 268 °C.

Turning to `CN(C)c1c(S(=O)C(F)(F)F)c(-c2ncon2)nn1-c1c(Cl)cc(C(F)(F)F)cc1Cl` (stereo not given), the melting point lay in the range of 82 to 84 °C.

The compound `Cc1cc(CC(=O)NCc2cccc3c2C(=O)N(C2CCC(=O)NC2=O)C3=O)oc1C` (stereo not given) yielded a melting point of 221 to 223 °C.

`CCc1ccc(S(=O)(=O)NC(C)(C)C)s1` had a melting point of 38 °C.

`O=C1NC(=O)C(c2ccccc2Cl)O1` (stereo not given) had a melting point of 106 to 108 °C.

`CC(=O)NC[C@H]1CN(c2cc(F)c(C3CCNCC3)c(F)c2)C(=O)O1` had a melting point of 125 to 126 °C.

`Cc1ccc(S(=O)(=O)n2cc(I)nc2C)cc1` came in with a melting point of 112 to 114 °C.

As to `CCCCCCCCCCCCCCC(=O)CCl`, the melting point lay within 52.5 to 53.5 °C.

Turning to `COc1cc(C2C(=O)N(C)Cc3c2ccc(OC)c3OC(C)C)cc(OC)c1OC` (stereo not given), the melting point was 128 to 129 °C.

`CC(O)c1cc(C(C)O)cc(S(N)(=O)=O)c1` (stereo not given) came in with a melting point of 175 to 177 °C.

In turn, `c1ccc(-c2ncn(C3CCCCO3)c2-c2ccccc2)cc1` (stereo not given) registered a melting point of 104 to 105 °C.

The compound `Cn1cncc1C(O)(c1ccc(Cl)cc1)c1ccc2c(c1)c(-c1cccc(Cl)c1)nc1nnnn12` (stereo not given) yielded a melting point of 139 °C.

In turn, `O=[N+]([O-])c1cc(Br)c(NS(=O)(=O)c2ccccc2)cc1Br` yielded a melting point of 148 °C.

`CCOC(=O)CCCOc1cccc(Oc2nc(OC)cc(OC)n2)c1C=NNc1ccc(Cl)cc1` showed a melting point of 139 °C.

`CCCCc1nc(CO)c(C(=O)O)n1Cc1ccc(-c2ccccc2C(=O)O)cc1`: the melting point lay within 130 to 140 °C.

Compound `CC(C)CNCC(=O)Nc1cccc2c1C(=O)c1c(NC(=O)CNCC(C)C)cccc1C2=O` had a melting point of 139 to 140 °C.

For `COC(=O)c1cccc(-c2nc(COc3ccc(CO)cc3)c(C)o2)c1`, the melting point was in the range of 105 to 106 °C.

Consider `CCCCCc1ccc([C@H]2CC[C@H](c3ccc(C#N)cc3)CC2)cc1`, for which the melting point is 80 °C.

`O=C1C[C@H]2CCCC[C@]23c2cccn2CCN13` (relative stereo): the melting point lay in the range of 122 to 123 °C.

Take `CC(C)(C(=O)OCC(=O)c1ccccc1)n1c(=O)[nH]c2cc(F)c(F)cc2c1=O`: the melting point lay in the range of 174 to 176 °C.

The compound `N#CC1(C#N)C2C=CC(C2)C1(Cl)Cl` (stereo not given) showed a melting point of 161 °C.

In turn, `Cn1cc(NC(=O)c2cc(NC(=O)c3cc([N+](=O)[O-])cn3C)cn2C)cc1C(=O)NCCN1CCOCC1` displayed a melting point above 230 °C.

The compound `CCCOCCOc1ccc(-c2ccc3c(c2)C=C(C(=O)O)CCN3Cc2ccccc2)cc1` returned a melting point of 139 to 142 °C.

In turn, `CCOC(=O)Nc1ccc(OC23CC4CC(CC(C4)C2)C3)cc1` gave a melting point of 116 to 118 °C.

Regarding `COc1cc(Cc2c(N)nc(N)nc2Cl)cc(OC)c1N`, the melting point fell in the range of 222 to 224 °C.

Compound `Cn1cncc1C(O)(c1ccc(Cl)cc1)c1ccc2nc(C=O)cc(-c3cccc(Cl)c3)c2c1` (stereo not given) returned a melting point of 205 °C.

`O=[N+]([O-])c1ccc(-c2nn(-c3ccccn3)cc2C=NO)o1` had a melting point of 234 to 235 °C.

`NC(=O)c1nnn(Cc2ccccc2F)c1N` yielded a melting point of 189 to 190 °C.

As for `COCCCNc1cc(C)ccc1N`, the melting point was 69 to 72 °C.

Take `C=CCNc1c(NC(CC)CC)cc(C)nc1Oc1c(C)cc(C)cc1C`: the melting point was 86 to 88 °C.

Regarding `CCCc1nc(N)c(C(=O)OCC)[nH]1`, the melting point was in the range of 111 to 114 °C.

As to `COC(=O)Cc1nsc(NC(=O)OC)n1`, the melting point fell in the range of 167 to 169 °C.

For `COC(=O)[C@@H]1C(=O)CC[C@H]1C(=O)OC` (relative stereo), the melting point is 49 to 50 °C.

As for `Nc1sc2c(c1C(=O)c1ccc(Cl)cc1)CCN(CCc1ccc([N+](=O)[O-])cc1)C2`, the melting point was 150 to 152 °C.

The compound `O=C(O)C(Cc1ccc2c(c1)OCO2)Cc1ccc2c(c1)OCO2` showed a melting point of 191 to 193 °C.

`O=S1(=O)NCCN(C2CC2)c2ccc(Oc3ccccc3)cc21` had a melting point of 119 °C.

In turn, `CC1=NC(c2ccc(F)cc2F)c2ccccc2CN1C` (single isomer, unassigned; (+)) registered a melting point of 137 to 138 °C.

Compound `O=C(O)COc1ccc(SCc2cc(-c3ccc(C(F)(F)F)cc3)on2)c2c1CCCC2` came in with a melting point of 167 to 170 °C.

As for `CC(C)(C)c1cc(SC2(Sc3cc(C(C)(C)C)c(O)c(C(C)(C)C)c3)CCCCCC2)cc(C(C)(C)C)c1O`, the melting point fell in the range of 144 to 146 °C.

On to `CC(=CN(C)C)C(=O)c1cccc(C(F)(F)F)c1`, for which the melting point lay in the range of 53 to 55 °C.

As to `O=C(O)CCc1cc(C(c2cc(F)ccc2F)S(=O)(=O)c2ccc(C(F)(F)F)cc2)c(Cl)cn1` (stereo not given), the melting point lay in the range of 166 to 167 °C.

`CCOC(=O)c1ncn2c1[C@@H]1CCCN1C(=O)c1c(Cl)cccc1-2` gave a melting point of 182 to 184 °C.

For `CN1C(=O)Cc2cc(CBr)cnc21`, the melting point came out at 65 °C.

In the case of `Nc1ccc([N+](=O)[O-])cc1CO`, the melting point lay within 141 to 142 °C.

`CCOC(=O)c1cnc2c(C)cc(-c3ccc(C(F)(F)F)cc3)cn12` registered a melting point of 128 °C.

Consider `CCOC(=O)Cn1nc(-c2ccc(OC)cc2)cc(C(=O)NC)c1=O`, for which the melting point was in the range of 141 to 142 °C.

As to `CC1(C)NC(=O)CN1C(=O)CN`, the melting point was in the range of 145 to 148 °C.

Compound `Cc1ccc(C=Cc2ccc(C#CC(C)N(O)C(N)=O)o2)cc1` (stereo not given) registered a melting point of 174 °C.

Take `Nc1c(C=O)cc(-n2cnnc2)cc1C(F)(F)F`: the melting point lay within 234 to 236 °C.

Compound `NS(=O)(=O)c1cc2ncc(O)cc2s1` gave a melting point of 248 to 250 °C.

`C#CCN(Cc1cc2c(=O)[nH]c(COC(C)=O)nc2cc1Cl)c1ccc(C(=O)OC(C)(C)C)cc1` returned a melting point of 219 to 220 °C.

`CCC(=O)C(O)=NNc1cc([N+](=O)[O-])ccc1Br`: the melting point lay in the range of 263 to 265 °C.

In the case of `CC(C)(C)c1cc(-c2nn(CCCO)c3ncccc23)cc(C(C)(C)C)c1O`, the melting point fell in the range of 143 to 144 °C.

With `C#CCn1c(-c2cc(Cl)nc(Cl)c2)nc(O)c(OC)c1=O`, the melting point was in the range of 227 to 228 °C.

The compound `CCOC(=O)C(Cc1ccc(OCCN2CCC(C)(C)c3cc(C(=O)c4ccccc4)ccc32)cc1)Nc1ccccc1C(=O)c1ccccc1` (stereo not given) registered a melting point of 75 to 77 °C.

`O=c1ssc(-c2cnccn2)c1CBr` registered a melting point of 119 °C.

In the case of `O=C(O)c1cnc(-c2nnn[nH]2)c2ccccc12`, the melting point was found to be 292 °C.

As to `CCCCn1c(=O)c2c(NC)n[nH]c2n(Cc2ccc(OC)cc2)c1=O`, the melting point lay in the range of 292 to 294 °C.

`COC(=O)CCCCC#Cc1cc(Cl)ccc1N` returned a melting point of 66 °C.

(Values after a melting point compilation (Tetko et al.; mined from patent text by program, amines drawn as free bases though some values may be those of a salt).)
